From patent publication US9684238B2, “Fluorene-type compound, photopolymerization initiator comprising said fluorene-type compound, and photosensitive composition containing said photopolymerization initiator” (TOKYO OHKA KOGYO CO., LTD., priority 2012, dated 2017)

What was measured:
[1] = Absorption coefficient (absorbance of 0.001% solution in tetrahydrofuran); format: physicochemical; settings: for Λ max (absorption maximum wavelength): 0.001% (wt/vol) in tetrahydrofuran, from 280 nm to 400 nm; for Absorption coefficient at 365 nm / Absorption coefficient at Λ max: 0.001% (wt/vol) solution in tetrahydrofuran
Method: A 0.001% (wt/vol) solution of each of the compounds 1, 2, 4, 6, 8, 9, 11, 12, 13, 15, 16, D-1, D-3, D-4, D-7, D-8, D-9, D-12, D-14, D-15, D-20, C-1, and C-2 in tetrahydrofuran was prepared, and its absorbance was measured with a spectrophotometer (manufactured by Hitachi High-Technologies Corporation, trade name: “U-3900H”). An absorption maximum wavelength (Amax) at a wavelength of from 280 nm to 400 nm was read from an absorption spectrum obtained with the spectrophotometer.

[2] = Evaluation 1: 20-μm pattern line width of transparent photosensitive composition; settings: for 20-μm pattern line width: transparent composition, initiator 0.4 mmol; for sensitivity to the active energy ray (in words): photopolymerization initiator containing the compound
Method: After that, the mixture was filtered with a membrane filter having an aperture of 5 μm to provide a photosensitive composition.
It should be noted that the fluorene-based compound as a photopolymerization initiator was used in such an amount that its molar quantity was kept constant in the respective examples and comparative examples.
The glass substrate after the application was dried with a fan dryer at 90° C. for 10 minutes. Thus, a coating film (photosensitive layer) was formed. Next, the film was exposed to light having an exposure energy quantity of 5 mJ/cm^2, 10 mJ/cm^2, 20 mJ/cm^2, 40 mJ/cm^2, 60 mJ/cm^2, or 80 mJ/cm^2 by using a high-pressure mercury lamp (manufactured by Karl Suss, trade name: “MASK ALIGNER”) through a negative mask (mask width: 20 μm). Next, the resultant was immersed in a 0.1 wt % aqueous solution of tetramethylammonium hydroxide (TMAH) and then rinsed with pure water. The remaining cured film was subjected to the following evaluation.
(§1) A larger value for the line width means higher sensitivity.

[3] = Evaluation 3: 20-μm pattern line width of black photosensitive composition; settings: black composition (carbon black, cardo resin), initiator 0.4 mmol
Excerpt: The mixture was filtered with a membrane filter having an aperture of 5 μm to provide a photosensitive composition.
Photosensitive compositions were each obtained in the same manner as in Example 10 except that the used fluorene-based compound and its usage were changed as shown in Table 5.
Each of the photosensitive compositions obtained in Examples 10 to 15, Examples 2-11 to 2-20, and Comparative Example 3 was applied onto a glass substrate with a spin coater (manufactured by Kyowariken Co., Ltd., trade name: “K-359SD1”) so that its thickness after drying became 1.0 μm. The glass substrate after the application was dried with a fan dryer at 90° C. for 10 minutes. Thus, a coating film (photosensitive layer) was formed. Next, the film was exposed to light having an exposure energy quantity of 10 mJ/cm^2, 20 mJ/cm^2, 40 mJ/cm^2, 60 mJ/cm^2, or 80 mJ/cm^2 by using a high-pressure mercury lamp (manufactured by Karl Suss, trade name: “MASK ALIGNER”) through a negative mask (mask width: 20 μm). Next, the resultant was immersed in a 0.1 wt % aqueous solution of tetra methyl ammonium hydroxide (TMAH) and then rinsed with pure water. The remaining cured film was subjected to the following evaluation. In addition, FIGS. 2, 3, and 6 show microscope photographs of black cured films obtained by using the photosensitive compositions of Examples 10 and 11, and Comparative Example 3, and FIGS. 7 to 11 show microscope photographs of black cured films obtained by using the photosensitive compositions of Examples 2-11, 2-13, 2-14, 2-17, and 2-18.
as §1

[4] = Transmittance of transparent cured film; format: physicochemical; settings: for Average transmittance (700 nm to 400 nm) Transparent cured film / Transmittance (400 nm) Transparent cured film: cured at exposure energy quantity 80 mJ/cm^2; for transparency of photosensitive composition and formed product (in words): photopolymerization initiator containing the compound
Method: Transparent cured films were formed by using the photosensitive compositions obtained in Examples 1 to 9, Examples 2-1 to 2-10, and Comparative Examples 1 and 2 in the same manner as in the evaluation 1 except that the exposure energy quantity was set to 80 mJ/cm^2. The transmittance (%) of each of the resultant transparent cured films at 400 nm and the average transmittance (%) thereof in the range of from 400 to 700 nm were measured with a spectrophotometer (manufactured by Hitachi High-Technologies Corporation, trade name: “U-3900H”, quartz cell, optical path length; 1 cm). A higher transmittance at 400 nm means less coloring with a yellow color. In addition, a higher transmittance of a coating film means a higher transmitting property of a pattern to be formed.

[5] = Decomposition point by thermal analysis (TG-DTA); format: physicochemical; settings: 5.0 mg
Method: The compounds 1, 2, 4, 6, 8, 9, 11, 12, 13, 15, 16, D-1, D-3, D-4, D-7, D-8, D-9, D-12, D-14, D-15, D-20, C-1, and C-2 were each subjected to measurement with a thermal analysis apparatus (TG-DTA) (manufactured by Rigaku Corporation, trade name: “Thermo Plus EVO TG 8120”) by using 5.0 mg thereof.

[6] = Average transmittance of composition; format: physicochemical; settings: photosensitive composition, quartz cell, optical path length 1 cm
Method: The average transmittance (%) of each of the photosensitive resin compositions obtained in Examples 1 to 9, Examples 2-1 to 2-10, and Comparative Examples 1 and 2 in the range of from 400 nm to 700 nm was measured with a spectrophotometer (manufactured by Hitachi High-Technologies Corporation, trade name: “U-3900H”, quartz cell, optical path length; 1 cm).

[7] = Solubility in PGME, PGMEA and ethyl lactate; format: physicochemical; settings: room temperature
Method: An evaluation for solubility was performed in accordance with the following evaluation criteria based on the dissolution amount.
A: 10 Parts by weight or more of the photopolymerization initiator is dissolved.
B: An amount in the range of from 5 parts by weight or more to less than 10 parts by weight of the photopolymerization initiator is dissolved.
C: An amount in the range of from 2 parts by weight or more to less than 5 parts by weight of the photopolymerization initiator is dissolved.
D: Less than 2 parts by weight of the photopolymerization initiator is dissolved.

[8] = exposure energy quantity 10 mJ/cm^2
[9] = exposure energy quantity 20 mJ/cm^2
[10] = exposure energy quantity 40 mJ/cm^2
[11] = exposure energy quantity 60 mJ/cm^2
[12] = exposure energy quantity 80 mJ/cm^2
[13] = exposure energy quantity 5 mJ/cm^2

Λ max (absorption maximum wavelength) [1] [nm]	Absorption coefficient at 365 nm [1] [mL/mg/cm]	Absorption coefficient at Λ max [1] [mL/mg/cm]	Average transmittance (700 nm to 400 nm) Transparent cured film [4] [%]	Transmittance (400 nm) Transparent cured film [4] [%]	transparency of photosensitive composition and formed product (in words) [4]	Decomposition point [5] [°C]	Average transmittance (700 nm to 400 nm) Solution [6] [%]	SMILES	20-μm pattern line width [2, 8]	20-μm pattern line width [2, 9]	20-μm pattern line width [2, 10]	20-μm pattern line width [2, 11]	20-μm pattern line width [2, 12]	20-μm pattern line width ([3]; 10 mJ/cm^2)	20-μm pattern line width ([3]; 20 mJ/cm^2)	20-μm pattern line width ([3]; 40 mJ/cm^2)	20-μm pattern line width ([3]; 60 mJ/cm^2)	20-μm pattern line width ([3]; 80 mJ/cm^2)	sensitivity to the active energy ray (in words) [2]	20-μm pattern line width [2, 13]	further results
330.0	3.0	54.0	100.0	99.4	additionally excellent transparency	192.7	94.0	CCCCCCC1(CCCCCC)c2cc(C(=O)c3ccc(F)cc3)ccc2-c2ccc(/C(CC(C)N(OC(C)=O)C(C)=O)=N\OC(C)=O)cc21 (stereo not shown) [Compound 9]	19.9	20.5	21.3	22.2	22.8	19.9	20.5	21.3	22.2	22.8	–	–	–
369.0	26.8	27.2	95.1	72.7	–	264.0	75.9	CCn1c2ccc(/C(=N\OC(C)=O)c3ccc(OC(C)COC)cc3C)cc2c2cc([N+](=O)[O-])ccc21 (stereo not shown) [Compound C-2, reference compound]	21.3	22.3	23.6	23.5	24.0	–	–	–	–	–	–	–	Solubility Ethyl lactate ([7]; in 100 parts by weight of ethyl lactate): C (An amount in the range of from 2 parts by weight or more to less than 5 parts by weight of the photopolymerization initiator is dissolved.); Solubility PGMEA ([7]; in 100 parts by weight of propylene glycol monomethyl ether acetate): B (An amount in the range of from 5 parts by weight or more to less than 10 parts by weight of the photopolymerization initiator is dissolved.); Solubility PGME ([7]; in 100 parts by weight of propylene glycol monomethyl ether): C (An amount in the range of from 2 parts by weight or more to less than 5 parts by weight of the photopolymerization initiator is dissolved.)
345.5	36.3	53.9	99.5	92.7	–	186.9	65.1	CCCC1(CCC)c2cc(C(CCCSc3ccc(Cl)cc3)=NOC(C)=O)ccc2-c2ccc([N+](=O)[O-])cc21 [Compound D-14]	20.6	21.7	22.8	–	23.2	19.9	20.6	21.7	22.8	23.2	additionally high sensitivity to the active energy ray	19.9	–
333.5	6.6	55.0	100.0	99.1	additionally excellent transparency	257.3	93.0	CCCCCCC1(CCCCCC)c2cc(C(=O)c3cccs3)ccc2-c2ccc(C(CC(C)N(OC(C)=O)C(C)=O)=NOC(C)=O)cc21 (racemic) [Compound 11]	19.9	20.5	21.9	22.5	22.8	–	–	–	–	–	additionally high sensitivity to the active energy ray	–	–
338.5	9.2	36.3	99.4	97.0	–	167.1	79.2	CCCCCCC1(CCCCCC)c2cc(C(=O)C(=NOC(C)=O)c3cc(C)ccc3C)ccc2-c2ccc(C(=O)c3ccc([N+](=O)[O-])cc3)cc21 [Compound 13]	19.4	19.6	19.8	20.6	21.0	–	–	–	–	–	–	–	–
346.0	36.7	52.6	99.1	91.9	–	202.1	86.2	CCCC1(CCC)c2cc(C(=O)C(CCSc3ccc(Cl)cc3)=NOC(C)=O)ccc2-c2ccc([N+](=O)[O-])cc21 [Compound D-15]	19.9	20.7	21.4	–	22.3	19.5	19.9	20.7	21.4	22.3	–	19.5	–
